Laboratory results: paper PMC2063833 (The Journal of Cell Biology, 2006)

Target: T1, Ssy1p (Saccharomyces cerevisiae, UniProt Q03770)
T1 sequence (Q03770 1-852): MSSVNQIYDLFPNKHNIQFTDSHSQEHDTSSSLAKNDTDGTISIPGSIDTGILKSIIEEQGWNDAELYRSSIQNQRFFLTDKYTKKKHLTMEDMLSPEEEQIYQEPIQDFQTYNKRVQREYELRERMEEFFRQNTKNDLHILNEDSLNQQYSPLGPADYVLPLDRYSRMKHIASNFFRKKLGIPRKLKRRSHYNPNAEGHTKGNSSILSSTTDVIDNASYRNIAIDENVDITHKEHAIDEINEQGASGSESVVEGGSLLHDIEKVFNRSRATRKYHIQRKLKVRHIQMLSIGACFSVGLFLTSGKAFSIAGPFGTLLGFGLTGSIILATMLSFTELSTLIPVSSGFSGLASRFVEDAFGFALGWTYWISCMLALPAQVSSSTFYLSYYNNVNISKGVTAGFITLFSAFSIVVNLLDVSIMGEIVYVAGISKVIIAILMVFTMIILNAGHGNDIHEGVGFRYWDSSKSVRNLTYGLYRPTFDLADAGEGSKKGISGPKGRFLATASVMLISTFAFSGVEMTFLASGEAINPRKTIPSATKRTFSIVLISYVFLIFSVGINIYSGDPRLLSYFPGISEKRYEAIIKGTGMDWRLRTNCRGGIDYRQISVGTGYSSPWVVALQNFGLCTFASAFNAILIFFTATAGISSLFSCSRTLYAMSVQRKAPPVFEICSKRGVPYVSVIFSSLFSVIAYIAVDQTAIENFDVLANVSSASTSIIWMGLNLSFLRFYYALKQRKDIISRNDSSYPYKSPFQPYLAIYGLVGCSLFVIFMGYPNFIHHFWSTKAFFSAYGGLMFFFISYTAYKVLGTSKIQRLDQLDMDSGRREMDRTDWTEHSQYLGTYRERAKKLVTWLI
Assay: Ssy1p signaling measured as Stp1p processing
Type: cell-based
Settings: for EC50: EC50 for sensing of extracellular amino acid, grown in SD

CC(C)CCO [isoamyl alcohol]
Effect on EC50 of adding isoamyl alcohol (isoamyl alcohol at relevant concentrations, unpublished data): no significant effect

CC(C)C[C@H](N)C(=O)O [Leu, leucine]
EC50 (experiment 1, strain M5447 (ura3 gap1Δ), Leuc 0.5 μmol/g DW, mean of triplicate): 13 µM
EC50 (experiment 5, strain M5568 (ura3 gap1Δ bap2Δ tat1Δ bap3Δ agp1::URA3), Leuc 1 μmol/g DW): 15 µM
EC50 (experiment 9, strain M5446 (ura3 gap1Δ LEU4-fbr), Leuc 12 μmol/g DW): 30 µM
